The text below walks through data of ChEMBL document CHEMBL1132071, “Benzenesulfonamide derivatives of 2-substituted 4H-3,1-benzoxazin-4-ones and benzthiazin-4-ones as inhibitors of complement C1r protease” (Bioorg Med Chem Lett, 1999).

Broadly, the IC50 is the concentration that inhibits the measured activity by half. Usually inhibition stands for the drop in the measured response relative to a control, in per cent.

Some results are limits rather than exact numbers.

The target of assay [1] is T1, Complement C1r subcomponent (Homo sapiens, UniProt P00736).
T1 sequence (P00736 whole entry): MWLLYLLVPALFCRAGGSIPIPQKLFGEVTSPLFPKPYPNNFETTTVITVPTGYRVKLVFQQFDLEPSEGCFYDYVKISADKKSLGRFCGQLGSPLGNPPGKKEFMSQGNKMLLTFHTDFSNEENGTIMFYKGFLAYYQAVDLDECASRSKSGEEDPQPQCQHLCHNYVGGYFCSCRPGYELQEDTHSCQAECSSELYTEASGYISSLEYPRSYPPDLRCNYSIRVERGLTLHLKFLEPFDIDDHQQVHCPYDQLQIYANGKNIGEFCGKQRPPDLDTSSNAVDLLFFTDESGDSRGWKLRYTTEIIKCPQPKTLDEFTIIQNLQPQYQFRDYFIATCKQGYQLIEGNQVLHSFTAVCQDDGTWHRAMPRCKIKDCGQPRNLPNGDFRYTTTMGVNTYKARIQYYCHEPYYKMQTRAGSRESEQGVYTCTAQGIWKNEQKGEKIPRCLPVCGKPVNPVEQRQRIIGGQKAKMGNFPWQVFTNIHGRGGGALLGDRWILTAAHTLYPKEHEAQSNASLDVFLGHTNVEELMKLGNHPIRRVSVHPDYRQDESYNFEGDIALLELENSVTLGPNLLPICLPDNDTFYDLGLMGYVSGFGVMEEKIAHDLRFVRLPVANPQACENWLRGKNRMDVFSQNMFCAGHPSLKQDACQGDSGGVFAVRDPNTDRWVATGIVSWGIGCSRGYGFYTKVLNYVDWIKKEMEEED
As to the kind of experiment: In vitro inhibition of purified human C1r protease.

For assay [2], the target named is T2, Complement C1r subcomponent (Homo sapiens) (UniProt P00736).
T2 sequence (whole entry): T1 sequence (P00736 whole entry)
Kind of assay: Compound was evaluated for inhibitory activity against purified human C1r protease at 62 uM was reported after 60 min.

A short description of assay [3]: Percent of inhibition at 200 uM was determined in hemolysis assay using suspension of sheep erythrocytes sensitized with antibodies to sheep erythrocytes. In kind it is functional, Ovis aries. Details: scale not given: the % may be the effect or the level left.
The target in assay [4] is T1, Complement C1r subcomponent. As to the kind of experiment: Evaluated in vitro for inhibitory activity against purified human C1r protease incubated in buffer for 60 minutes.
The nature of assay [5]: (§1) Inhibitory activity against hemolysis at 200 uM using suspension of sheep erythrocytes sensitized with antibodies to sheep erythrocytes. In kind it is functional. Particulars: Ovis aries.
Assay [6] has as its target T2, Complement C1r subcomponent (Homo sapiens). As to the kind of experiment: Compound was evaluated for inhibitory activity against purified human C1r protease at 31.2 uM.
Assay [7] is described as follows: as §1. It is filed as functional, Ovis aries. Details: scale not given: the % may be the effect or the level left.
Assay [8] in a line: Compound was evaluated for inhibitory activity in hemolysis assay using suspension of sheep erythrocytes sensitized with antibodies to sheep erythrocytes. It is filed as functional, Ovis aries.
In assay [9] the target is T2, Complement C1r subcomponent (Homo sapiens). Kind of assay: Compound was evaluated for inhibitory activity against purified human C1r protease at 15 uM concentration.

For `Cc1ccc(S(=O)(=O)N(C)c2nc3ccccc3c(=O)o2)cc1`, the midpoint of inhibition in assay [1], the IC50, lay at 7.8 µM. The inhibition in [2] was found to be 40%.

As for `O=c1oc(Nc2ccccc2I)nc2cc(C(F)(F)F)ccc12`, the Control in assay [3] turned out to be 146%.

On to `CN(c1nc2ccccc2c(=O)o1)S(=O)(=O)c1ccc(C(C)(C)C)cc1`, for which the IC50 in [1] and in assay [4] was above 60 µM each time.

With `CN(c1nc2ccccc2c(=O)o1)S(=O)(=O)c1cccc2ccccc12`, the concentration for half-maximal inhibition (IC50) in assay [1] amounted to 6 µM; in [4], 10 µM. The inhibition at 200 µM in assay [5] was determined as 56%.

In the case of `CCN(c1nc2ccccc2c(=O)o1)S(=O)(=O)c1ccccc1`, the IC50 in assay [1] was 3.2 µM; in assay [4], 8.3 µM. Moreover, in [5], the inhibition at 200 µM was determined as 86%.

Take `CN(c1nc2ccccc2c(=O)o1)S(=O)(=O)c1ccc(Cl)cc1`: the half-maximal inhibitory concentration (IC50) in assay [4] is above 62 µM. Besides, in assay [6], the inhibition is 40%.

`CN(c1nc2ccccc2c(=O)s1)S(=O)(=O)c1ccccc1` yielded an IC50 in [1] above 62.5 µM. Moreover, the Control in assay [7] was found to be 162%.

With `CN(c1nc2ccccc2c(=O)o1)S(=O)(=O)c1cccc(Cl)c1`, the IC50 was determined as 24 µM in assay [1] and 58 µM in [4]. The inhibition at 200 µM in assay [5] came out at 49%.

`COc1ccc(S(=O)(=O)N(C)c2nc3ccccc3c(=O)s2)cc1` came in with an IC50 in assay [1] above 62.5 µM.

Consider `COc1ccc(S(=O)(=O)N(C)c2nc3ccccc3c(=O)o2)cc1`, for which the IC50 was found to be 0.7 µM in assay [1] and 6 µM in [4]. For the same compound, the inhibition at 200 µM in assay [5] amounted to 80%.

Take `CN(c1nc2ccccc2c(=O)o1)S(=O)(=O)c1c(Cl)cccc1Cl`: the IC50 in [1] was 7.5 µM; in [4] it was above 62 µM.

For the compound `CCN(c1nc2ccccc2c(=O)o1)S(=O)(=O)c1ccc(Cl)cc1`, the IC50 turned out to be 30 µM in [1] and 62 µM in [4].

Turning to `N=C(N)Nc1ccc(C(=O)Oc2ccc3cc(C(=N)N)ccc3c2)cc1` [NAFAMOSTAT], the IC50 in assay [8] stood at 16.6 µM.

For the compound `CN(c1nc2ccccc2c(=O)o1)S(=O)(=O)c1ccc(N)cc1`, the IC50 in assay [1] turned out to be 7 µM; in assay [4] it was 62 µM; in assay [8], 8 µM.

Regarding `CN(c1nc2ccccc2c(=O)o1)S(=O)(=O)c1ccccc1Br`, the figures for the IC50 in assay [1] and in assay [4] were 2.8 µM and 25 µM, respectively.

Consider `CN(c1nc2ccccc2c(=O)o1)S(=O)(=O)c1ccc(Cl)c(Cl)c1`, for which, in assay [4], the half-maximal inhibitory concentration (IC50) is above 62.5 µM. This compound had an inhibition in [9] of 20%.

With `CN(c1nc2ccccc2c(=O)o1)S(=O)(=O)c1ccccc1`, the values for the IC50 in assay [1] and in assay [4] were 4 µM and 6 µM, respectively. In addition, the Control in assay [7] is reported as 162%.

Take `CN(c1nc2ccccc2c(=O)o1)S(=O)(=O)c1ccc(C#N)cc1`: the IC50 in assay [1] was 20 µM. In assay [2], this compound showed an inhibition of 30%.

With `CN(c1nc2ccccc2c(=O)o1)S(=O)(=O)c1ccc([N+](=O)[O-])cc1`, the IC50 in assay [1] was 31 µM.

As for `CN(c1nc2ccccc2c(=O)o1)S(=O)(=O)c1ccc(NC(=N)N)cc1`, the IC50 in assay [1] worked out at 1.5 µM; in assay [4] it was 3 µM; in assay [8] it was 18 µM.
